Experimental data from patent publication US20250051390A1, “NOVEL ADIPONECTIN-DERIVED PEPTOID DERIVATIVE AND USE THEREOF” (SEOUL NATIONAL UNIVERSITY HOSPITAL, priority 2021, published 2025).

Columns and labels:
AMPK phosphorylation = AMPK phosphorylation activity in mouse adipocytes (Western blot); type: cell-based; details: 3T3-L1, 10 μM, 24 hours, Western blot; APN5 = 1.0
Protocol: There were confirmed effects of the peptoid derivative of the present disclosure on the expression and receptor activity of adiponectin in mouse adipocytes as a main adiponectin production site. A mouse adipocyte cell line 3T3-L1 was treated with each of the peptoid derivatives of the present disclosure at a concentration of 10 μM and cultured for 24 hours, and then cells were obtained. Thereafter, the protein was extracted and the effect of adiponectin on AMPK phosphorylation, which was responsible for the main downstream signaling, was confirmed by Western blot.

CYP2D6 = CYP2D6 (Homo sapiens, UniProt P10635); test: CYP inhibition assay, CYP2D6; details: human liver microsomes 0.25 mg/ml, 10 μM, 15 minutes
Sequence of CYP2D6 (P10635 whole entry): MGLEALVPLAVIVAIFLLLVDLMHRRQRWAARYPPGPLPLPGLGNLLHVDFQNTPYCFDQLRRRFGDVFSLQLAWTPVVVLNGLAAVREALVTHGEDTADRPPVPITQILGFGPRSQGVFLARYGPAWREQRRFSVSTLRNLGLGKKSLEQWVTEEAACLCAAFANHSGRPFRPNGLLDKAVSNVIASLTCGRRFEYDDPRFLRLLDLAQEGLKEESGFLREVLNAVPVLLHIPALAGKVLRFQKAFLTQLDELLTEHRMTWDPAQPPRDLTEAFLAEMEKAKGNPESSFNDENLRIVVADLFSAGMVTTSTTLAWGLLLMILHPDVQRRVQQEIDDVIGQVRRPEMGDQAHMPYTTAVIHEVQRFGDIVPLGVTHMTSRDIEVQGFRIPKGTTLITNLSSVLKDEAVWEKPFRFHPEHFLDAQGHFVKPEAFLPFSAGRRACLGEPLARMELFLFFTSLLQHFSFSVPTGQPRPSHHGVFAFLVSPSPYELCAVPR
Protocol: (§1) Metabolites of each CYP isoenzyme indicator drug produced through the reaction were analyzed by LC-MS/MS using the Shimadzu Nexera XR system and TSQ vantage (Thermo).

CYP3A4 = CYP3A4 (Homo sapiens, UniProt P08684); test: CYP inhibition assay, CYP3A4; details: human liver microsomes 0.25 mg/ml, 10 μM, 15 minutes
Sequence of CYP3A4 (P08684 whole entry): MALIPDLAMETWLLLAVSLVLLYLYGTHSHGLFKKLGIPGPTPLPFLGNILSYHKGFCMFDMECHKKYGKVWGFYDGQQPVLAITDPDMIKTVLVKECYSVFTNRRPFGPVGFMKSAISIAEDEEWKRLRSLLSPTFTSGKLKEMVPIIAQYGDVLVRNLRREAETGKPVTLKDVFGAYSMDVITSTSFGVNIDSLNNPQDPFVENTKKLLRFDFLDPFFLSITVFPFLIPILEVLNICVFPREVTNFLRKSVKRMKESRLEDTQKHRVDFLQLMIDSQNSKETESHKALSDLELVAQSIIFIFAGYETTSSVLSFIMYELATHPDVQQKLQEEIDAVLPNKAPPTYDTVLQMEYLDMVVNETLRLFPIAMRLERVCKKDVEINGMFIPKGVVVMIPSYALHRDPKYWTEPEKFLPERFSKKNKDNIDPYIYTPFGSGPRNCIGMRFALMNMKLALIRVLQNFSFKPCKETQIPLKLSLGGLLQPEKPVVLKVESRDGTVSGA
Protocol: as §1

CYP2C19 = CYP2C19 (Homo sapiens, UniProt P33261); test: CYP inhibition assay, CYP2C19; details: human liver microsomes 0.25 mg/ml, 10 μM, 15 minutes
Sequence of CYP2C19 (P33261 whole entry): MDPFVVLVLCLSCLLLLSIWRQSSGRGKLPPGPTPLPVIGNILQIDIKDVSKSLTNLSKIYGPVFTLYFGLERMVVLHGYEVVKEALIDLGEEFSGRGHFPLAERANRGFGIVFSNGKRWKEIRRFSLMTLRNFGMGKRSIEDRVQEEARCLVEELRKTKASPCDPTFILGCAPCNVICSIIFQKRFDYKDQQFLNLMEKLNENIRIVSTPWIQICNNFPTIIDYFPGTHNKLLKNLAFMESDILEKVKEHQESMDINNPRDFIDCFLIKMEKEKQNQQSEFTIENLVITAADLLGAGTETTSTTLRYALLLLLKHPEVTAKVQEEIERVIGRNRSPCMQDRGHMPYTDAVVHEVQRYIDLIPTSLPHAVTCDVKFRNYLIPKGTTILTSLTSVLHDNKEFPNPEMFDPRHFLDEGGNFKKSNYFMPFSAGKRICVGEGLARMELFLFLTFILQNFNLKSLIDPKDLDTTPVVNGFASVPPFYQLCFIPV
Protocol: as §1

CYP1A2 = target: T1, CYP1A2 (Homo sapiens, UniProt P05177); test: CYP inhibition assay, CYP1A2; details: human liver microsomes 0.25 mg/ml, 10 μM, 15 minutes
T1 sequence (P05177 1-516): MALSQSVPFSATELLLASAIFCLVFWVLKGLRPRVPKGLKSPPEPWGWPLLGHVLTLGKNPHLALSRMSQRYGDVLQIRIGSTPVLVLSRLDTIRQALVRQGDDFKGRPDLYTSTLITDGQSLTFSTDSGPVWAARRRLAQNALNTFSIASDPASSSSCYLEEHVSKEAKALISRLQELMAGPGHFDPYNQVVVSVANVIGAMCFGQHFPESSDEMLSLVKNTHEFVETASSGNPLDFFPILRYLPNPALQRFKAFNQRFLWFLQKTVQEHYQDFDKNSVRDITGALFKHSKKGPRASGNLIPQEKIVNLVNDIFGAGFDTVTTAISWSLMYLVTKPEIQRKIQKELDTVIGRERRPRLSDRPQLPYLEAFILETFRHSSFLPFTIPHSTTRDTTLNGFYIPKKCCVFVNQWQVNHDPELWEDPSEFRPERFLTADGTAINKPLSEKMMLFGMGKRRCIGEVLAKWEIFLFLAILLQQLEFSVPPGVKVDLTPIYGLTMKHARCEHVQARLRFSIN
Protocol: as §1

In the case of CC(C)C[C@H](NC(=O)CN)C(=O)N[C@@H](Cc1ccc(O)cc1)C(=O)N[C@@H](Cc1ccc(O)cc1)C(=O)N[C@@H](Cc1ccccc1)C(=O)O [APN5, NH2-GLYYF-OH], the “AMPK phosphorylation activity (fold change)” value (AMPK phosphorylation) is reported as 1.0 fold change, the “CYP inhibition (% of control activity) CYP2D6” value (CYP2D6) is reported as 92.3 % of control activity and the “CYP inhibition (% of control activity) CYP3A4” value (CYP3A4) is reported as 82.9 % of control activity. The “CYP inhibition (% of control activity) CYP2C19” value (CYP2C19) was 98.5 % of control activity and the “CYP inhibition (% of control activity) CYP1A2” value (CYP1A2) was 88.8 % of control activity.
